Results on two substances are retold here after patent US20080254152A1, “Methods for Reducing the Effects of Stress on Skin Condition” (priority 2003, published 2008).

Where no end group is shown, it is not given here.

The test concerns ICAM-1 expression in HUVECs. Briefly: ICAM-1 expression in HUVECs chronically treated with CRH, then PMA. The test is classed as cell-based, Human. As to conditions: data not shown. As for the experimental part: Following this, the cells were oxidatively stressed for 24 hours with 1 μM PMA (Sigma P8139).
Receptor antagonists were added to the cells during the pre-treatment period. These included the Glucocorticoid Receptor Antagonist; 2 μM Mifepristone (Sigma M8046) and two CRH receptor antagonists; 200 nM Astressin (Sigma A4933) and 200 nM α-helical CRF peptide antagonist (Sigma C2917).
ICAM-1 protein in each cell lysate was estimated using the Human sICAM-1 DuoSet ELISA kit (R&D Systems DY720) according to the manufacturer's instructions.
The capture antibody was diluted to a final concentration of 4 μg/ml in PBS and 100 μl was used to coat each well of a 96-well microtitre plate overnight at room temperature. The plate was then washed three times with wash buffer (0.05% Tween 20 in PBS). Each well received 300 μl of blocking buffer (1% BSA, 5% sucrose and 0.05% sodium azide in PBS), and the plate was incubated at room temperature for 1 hour before being washed as before. Each cell lysate was then diluted 1/200 in reagent diluent (1% BSA in PBS) and 100 μl added to duplicate wells of the antibody coated plate. Eight ICAM-1 standards were prepared in reagent diluent, at concentrations ranging from 0 to 1000 pg/ml, and duplicate 100 μl standards were added to the appropriate wells on the plate. A separate set of standards was routinely used for each plate. The plate was incubated at room temperature for 2 hours before being washed again. 100 μl of detection antibody, diluted to a final concentration of 100 ng/ml, was added to each well and the plate incubated at room temperature for 2 hours. […] The absorbance of the plates was measured at 450 nm with the correction wavelength set at 570 nm.
A standard curve was plotted of mean absorbance versus ICAM-1 concentration and the line of best fit calculated by regression analysis. The unknown concentration of ICAM-1 in the samples was calculated from this, taking the lysate dilution factor into account.
To normalise for differences in cell number and total protein concentration, the final result was expressed as ng ICAM-1 per mg of total protein. […]

On to astressin, for which the “Effect on increased induction of ICAM-1 post-oxidative stress” value (200 nM CRH receptor antagonist during 5-day CRH pre-treatment, then PMA) was “only partially blocked”. Moreover, for the setting “200 nM CRH receptor antagonist during CRH pre-treatment”, the “Level of ICAM-1 relative to that induced by oxidative stress after pre-treatment with CRH for five days” value was “approximately half”.

With “CRH: Corticotrophin Releasing Hormone, Calbiochem 05-23-0050 (SEEPPISLDLTFHLLREVLEMARAEQLAQQAHSNRKLMEII; ends and bridges not checked; UniProt P06850 154-194, looked up)”, the “Change in ICAM-1 secretion after chronic CRH treatment” value (1 to 100 nM CRH daily for 5 days, then PMA, vs untreated cells) is listed as “significant increase”.
